We go through 25 molecules from US12415770B2, “Modulators of liver receptor homologue 1 (LRH-1) and uses” (Emory University, priority 2017, dated 2025).

Assay [1] has as its target T1, LRH-1 (Homo sapiens, UniProt O00482).
T1 construct: The transfected plasmids included full-length LRH-1 in a pCI vector; expressed in transfected cells; host or cells: HeLa
Kind of assay: Luciferase reporter assay (SHP-luc) in HeLa cells transfected with full-length LRH-1. It counts as cell-based. The conditions noted are these: for EC50 / EC50 (μM): HeLa cells, SHP-luc reporter, 24 hours, 0.03-30 μM; for Relative Efficacy: fold increase over baseline (DMSO-treated cells) relative to the fold increase induced by RJW100. The protocol: EC50 and Relative Activity values were calculated from luciferase reporter assays.

The target of assay [2] is T2, LRH-1 LBD (Homo sapiens, UniProt O00482).
T2 construct: LRH-1 LBD (residues 299-541) in the pMSC7 vector was expressed in BL21 (DE3) pLysS E. coli; made in house; host or cells: E. coli BL21 (DE3) pLysS
Kind of assay: Thermofluor (DSF) assay, purified LRH-1 LBD-His protein. It counts as binding. The conditions noted are these: read-out: ΔTm (mean +/− SEM) (° C.). How it is done:
Thermofluor assays—Purified LRH-1 LBD-His protein (0.2 mg/ml) was incubated overnight with 50 μM of each compound at 4° C. The final DMSO concentration in the reactions was 1%. SYPRO orange dye (Invitrogen) was then added at a 1:1000 dilution. Reactions were heated at a rate of 0.5° C. per minute, using a StepOne Plus Real Time PCR System (ThermoFisher). […] Data were analyzed by first subtracting baseline fluorescence (ligands+SYPRO with no protein) and then fitting the curves using the Bolzman equation (GraphPad Prism, v6) to determine the Tm. […]

[3] abbreviates: 50 μM compound, relative to DLPC-bound LRH-1.

The term EC50 denotes the concentration giving half of the maximal effect. Low readings indicate higher potency in that assay, high ones lower potency in that assay.

Molecules are shown by their SMILES. Read-outs that look alike come from different tables or passages of the source.

T1 sequence (O00482 whole entry): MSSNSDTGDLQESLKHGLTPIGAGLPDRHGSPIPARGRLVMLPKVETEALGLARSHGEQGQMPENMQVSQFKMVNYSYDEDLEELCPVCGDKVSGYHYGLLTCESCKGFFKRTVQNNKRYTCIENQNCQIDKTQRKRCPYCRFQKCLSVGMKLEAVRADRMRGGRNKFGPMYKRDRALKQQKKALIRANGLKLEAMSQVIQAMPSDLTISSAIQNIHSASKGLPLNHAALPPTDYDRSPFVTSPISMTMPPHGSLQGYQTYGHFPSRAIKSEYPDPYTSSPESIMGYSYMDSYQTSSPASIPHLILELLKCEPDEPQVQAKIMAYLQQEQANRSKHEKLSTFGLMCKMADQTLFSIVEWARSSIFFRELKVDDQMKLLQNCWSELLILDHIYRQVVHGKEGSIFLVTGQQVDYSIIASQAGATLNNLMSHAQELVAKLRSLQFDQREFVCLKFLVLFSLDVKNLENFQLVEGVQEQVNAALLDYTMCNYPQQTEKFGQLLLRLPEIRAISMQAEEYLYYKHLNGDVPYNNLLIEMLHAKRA
T2 sequence (O00482 299-541): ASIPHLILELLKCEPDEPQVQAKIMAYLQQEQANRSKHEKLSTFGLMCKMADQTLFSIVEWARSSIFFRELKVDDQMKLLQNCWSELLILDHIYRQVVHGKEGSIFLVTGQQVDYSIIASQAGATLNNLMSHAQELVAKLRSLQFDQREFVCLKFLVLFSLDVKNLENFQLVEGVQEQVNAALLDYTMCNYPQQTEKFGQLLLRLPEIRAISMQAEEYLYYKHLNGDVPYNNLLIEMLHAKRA

For `C=C(c1ccccc1)[C@@]12CC[C@@H](OC(=O)NS(=O)(=O)O)C1CC(CCCCCC)=C2c1ccccc1` (stereo partly drawn) [Compound 40-exo, ((((endo or exo)-5-hexyl-4-phenyl-3a-(1-phenylvinyl)-1,2,3,3a, 6,6a-hexahydropentalen-1-yl)oxy)carbonyl)sulfamic acid], in assay [1], the EC50 was more than 30 µM and the “Relative Efficacy” value is on record as 0.

As for `C=C(c1ccccc1)[C@@]12CC[C@@H](O)[C@@H]1CC(CCCCCCCC(=O)O)=C2c1ccccc1` (relative stereo) [Compound 9f, 8-(6-exo-hydroxy-3-phenyl-3a-(1-phenylvinyl)-1,3a,4,5,6,6a-hexahydropentalen-2-yl)octanoic acid], in assay [1], the response was half-maximal at 4 µM (EC50) and the “Relative Efficacy” value worked out at 2.48. In assay [2] (setting [3]), the ΔTm at 50 µM worked out at 4.4 °C.

Turning to `C=C(c1ccccc1)[C@@]12CC[C@@H](O)C1CC(CCCCCC)=C2c1cc(O)ccc1C` (mixture of isomers) [Compound 17f, (Exo)-5-hexyl-4-(5-hydroxy-2-methylphenyl)-3a-(1-phenylvinyl)-1,2,3,3a,6,6a-hexahydropentalen-1-ol], the ΔTm at 50 µM in assay [2] (setting [3]) is -1.9 °C.

As to `C=C(c1ccccc1F)[C@@]12CC[C@@H](O)C1CC(CCCCCC)=C2c1ccccc1` (mixture of isomers) [Compound 20, (Exo)-3a-(1-(2-fluorophenyl)vinyl)-5-hexyl-4-phenyl-1,2,3,3a,6,6a-hexahydropentalen-1-ol], in assay [2] (setting [3]), the ΔTm at 50 µM worked out at 1.4 °C.

For `C=C(c1ccccc1)C12CCC(O)C1CC(CCCCCCCCOP(=O)([O-])OCC[N+](C)(C)C)=C2c1ccccc1` (stereo not drawn) [Compound 9g, 8-(6-exo-hydroxy-3-phenyl-3a-(1-phenylvinyl)-1,3a,4,5,6,6a-hexahydropentalen-2-yl)octyl (2-(trimethylammonio)ethyl) phosphate], in assay [1], the concentration for a half-maximal effect (EC50) is more than 30 µM and the “Relative Efficacy” value worked out at 1.12. In addition, the ΔTm at 50 µM in assay [2] (setting [3]) is 5.6 °C.

In the case of `C=C(c1ccc(O)cc1)[C@@]12CC[C@@H](O)C1CC(CCCCCC)=C2c1ccccc1` (mixture of isomers) [Compound 23b, (Exo)-5-hexyl-3a-(1-(4-hydroxyphenyl)vinyl)-4-phenyl-1,2,3,3a,6,6a-hexahydropentalen-1-ol], in assay [1], the EC50 was 5 µM and the “Relative Efficacy” value turned out to be 0.86. In assay [2] (setting [3]), the ΔTm at 50 µM is less than 1 °C.

Consider `C=C(c1ccccc1)[C@@]12CC[C@@H](O)C1CC(CCCCCC)=C2c1cc(O)cc(F)c1` (mixture of isomers) [Compound 18f, (Exo)-4-(3-fluoro-5-hydroxyphenyl)-5-hexyl-3a-(1-phenylvinyl)-1,2,3,3a,6,6a-hexahydropentalen-1-ol], for which, in assay [1], the EC50 was more than 30 µM and the “Relative Efficacy” value was 2.8. Besides, in assay [2] (setting [3]), the ΔTm at 50 µM is less than 1 °C.

With `C=C(c1ccccc1)[C@@]12CC[C@H](OS(N)(=O)=O)C1CC(CCCCCC)=C2c1ccccc1` (stereo partly drawn) [Compound 28-endo, (Endo or Exo)-5-hexyl-4-phenyl-3a-(1-phenylvinyl)-1,2,3,3a,6,6a-hexahydropentalen-1-yl sulfamate], the ΔTm at 50 µM in assay [2] (setting [3]) came out at 8 °C.

Turning to `C=C(c1ccccc1)[C@@]12CC[C@@H](O)C1CC(CCCCCC)=C2c1cc(N)ccc1F` (mixture of isomers) [Compound 16g, (Exo)-4-(5-amino-2-fluorophenyl)-5-hexyl-3a-(1-phenylvinyl)-1,2,3,3a,6,6a-hexahydropentalen-1-ol], in assay [1], the concentration giving a half-maximal response (EC50) was 24 µM and the “Relative Efficacy” value was 3.8. Also, the ΔTm at 50 µM in assay [2] (setting [3]) is less than 1 °C.

Consider `C=C(c1ccccc1)[C@@]12CC[C@@H](O)C1CC(CCCCCC)=C2c1cc(O)ccc1F` (mixture of isomers) [Compound 16f, (Exo)-4-(2-fluoro-5-hydroxyphenyl)-5-hexyl-3a-(1-phenylvinyl)-1,2,3,3a,6,6a-hexahydropentalen-1-ol], for which, in assay [1], the EC50 is more than 30 µM and the “Relative Efficacy” value stood at 0.9. The ΔTm at 50 µM in assay [2] (setting [3]) is less than 1 °C.

On to `CCCCCCC1=C(c2ccccc2)[C@]2(C(C)c3ccccc3)CC[C@@H](O)C2C1` (stereo partly drawn) [Compound 39-exo, (Endo or Exo)-5-hexyl-4-phenyl-3a-(1-phenylethyl)-1,2,3,3a,6,6a-hexahydropentalen-1-ol], for which the “Relative Efficacy” value in assay [1] amounted to 0.06. Further, the ΔTm at 50 µM in assay [2] (setting [3]) turned out to be 0.1 °C.

In the case of `C=C(c1ccccc1)C12CCC(O)C1CC(CCCCCCCCCCCO)=C2c1ccccc1` (stereo not drawn) [Compound 12e, Exo-5-(11-hydroxyundecyl)-4-phenyl-3a-(1-phenylvinyl)-1,2,3,3a,6,6a-hexahydropentalen-1-ol], in assay [1], it took 2 µM to reach a half-maximal effect (EC50) and the “Relative Efficacy” value is listed as 0.87. Also, the ΔTm at 50 µM in assay [2] (setting [3]) came to 4.7 °C.

As to `C=C(c1ccccc1)[C@@]12CCC(O)C1CC(CCCCCCCCOP(=O)(OCC)OCC)=C2c1ccccc1` (stereo partly drawn) [Compound 53-endo, (Endo or Exo) diethyl (8-(6-hydroxy-3-phenyl-3a-(1-phenylvinyl)-1,3a,4,5,6,6a-hexahydropentalen-2-yl)octyl)phosphate], in assay [1], the “Relative Efficacy” value is 1.04. Moreover, in assay [2], the ΔTm at 50 µM is less than 1 °C.

Consider `C=C(c1ccccc1)[C@@]12CC[C@@H](O)C1CC(CCCCCC)=C2c1cc(N)ccc1C` (mixture of isomers) [Compound 17g, (Exo)-4-(5-amino-2-methylphenyl)-5-hexyl-3a-(1-phenylvinyl)-1,2,3,3a,6,6a-hexahydropentalen-1-ol], for which, in assay [1], the EC50 is more than 30 µM and the “Relative Efficacy” value amounted to 2.7. Moreover, in assay [2] (setting [3]), the ΔTm at 50 µM is less than 1 °C.

As to `C=C(c1ccccc1)C12CC(O)C(CN)C1CC(CCCCCC)=C2c1ccccc1` (stereo not shown) [Compound 51, 3-(aminomethyl)-5-hexyl-6-phenyl-6a-(1-phenylvinyl)-1,2,3,3a,4,6a-hexahydropentalen-2-ol], in assay [1], the “EC50 (μM)” value was “cnc” and the “Relative Efficacy” value amounted to 0.65.

For `C=C(c1ccccc1)[C@@]12CC[C@@H](O)[C@@H]1CC(CCCCCCCC(=O)OC[C@H](COP(=O)([O-])OCC[N+](C)(C)C)OC(=O)CC)=C2c1ccccc1` [Compound 14d, (2R)-3-((8-(6-(exo)-hydroxy-3-phenyl-3a-(1-phenylvinyl)-1,3a,4,5,6,6a-hexahydropentalen-2-yl)octanoyl)oxy)-2-(propionyloxy) propyl(2-(trimethylammonio)ethyl) phosphate], in assay [1], the midpoint of the response, the EC50, lay at 17 µM and the “Relative Efficacy” value worked out at 3.35.

For `C=C(c1ccccc1C)[C@@]12CC[C@@H](O)C1CC(CCCCCC)=C2c1ccccc1` (mixture of isomers) [Compound 21, (Exo)-5-hexyl-4-phenyl-3a-(1-(o-tolyl)vinyl)-1,2,3,3a,6,6a-hexahydropentalen-1-ol], in assay [2] (setting [3]), the ΔTm at 50 µM turned out to be 1.3 °C.

In the case of `C=C(c1ccccc1)[C@@]12CC[C@H](NC(C)=O)C1CC(CCCCCC)=C2c1ccccc1` (stereo partly drawn) [Compound 35-endo, N-((endo or exo)-5-hexyl-4-phenyl-3a-(1-phenylvinyl)-1,2,3,3a,6,6a-hexahydropentalen-1-yl) acetamide], the ΔTm at 50 µM in assay [2] (setting [3]) is 0.4 °C.

Turning to `C=C(c1ccccc1)C12CCC(CN)C1CC(CCCCCC)=C2c1ccccc1` (stereo not drawn) [Compound 48-endo, (endo or exo) (5-hexyl-4-phenyl-3a-(1-phenylvinyl)-1,2,3,3a,6,6a-hexahydropentalen-1-10 yl)methanamine], in assay [2] (setting [3]), the ΔTm at 50 µM amounted to 0 °C.

As for `C=C(c1ccc(Br)cc1)[C@@]12CC[C@@H](O)C1CC(CCCCCC)=C2c1ccccc1` (mixture of isomers) [Compound 23a, (Exo)-3a-(1-(4-bromophenyl)vinyl)-5-hexyl-4-phenyl-1,2,3,3a,6,6a-hexahydropentalen-1-ol], in assay [1], the “EC50 (μM)” value is on record as “cnc” and the “Relative Efficacy” value was determined as 0.06.

Turning to `C=C(c1ccccc1)[C@@]12CC[C@@H](NC(N)=O)C1CC(CCCCCC)=C2c1ccccc1` (stereo partly drawn) [Compound 36-exo, 1-((endo or exo)-5-hexyl-4-phenyl-3a-(1-phenylvinyl)-1,2,3,3a, 6,6a-hexahydropentalen-1-yl) urea], the ΔTm at 50 µM in assay [2] (setting [3]) is -1.4 °C.

For `C=C(c1ccccc1)C12CCC(O)C1CC(CCCCCCCC(=O)N1CCC(COP(=O)([O-])OCC[N+](C)(C)C)C1)=C2c1ccccc1` [Compound 13b, ((3R)-1-(8-(6-(exo)-hydroxy-3-phenyl-3a-(1-phenylvinyl)-1,3a,4,5,6,6a-hexahydropentalen-2-yl)octanoyl)pyrrolidin-3-yl)methyl (2-(trimethylammonio)ethyl)phosphate], in assay [1], the EC50 stood at 12 µM and the “Relative Efficacy” value is 0.96.

With `C=C(c1ccccc1)[C@@]12CC[C@H](NC(N)=O)C1CC(CCCCCC)=C2c1ccccc1` (stereo partly drawn) [Compound 36-endo, 1-((endo or exo)-5-hexyl-4-phenyl-3a-(1-phenylvinyl)-1,2,3,3a, 6,6a-hexahydropentalen-1-yl) urea], the ΔTm at 50 µM in assay [2] (setting [3]) came out at 1.1 °C.

As for `C=C(c1ccccc1)[C@@]12CC[C@@H](OS(N)(=O)=O)C1CC(CCCCCC)=C2c1ccccc1` (stereo partly drawn) [Compound 28-exo, (Endo or Exo)-5-hexyl-4-phenyl-3a-(1-phenylvinyl)-1,2,3,3a,6,6a-hexahydropentalen-1-yl sulfamate], the ΔTm at 50 µM in assay [2] (setting [3]) came to 5.1 °C.

Regarding `C=C(c1ccccc1)C12CC(O)C(O)C1CC(CCCCCC)=C2c1ccccc1` (stereo not shown) [Compound 52, 5-hexyl-4-phenyl-3a-(1-phenylvinyl)-1,2,3,3a,6,6a-hexahydropentalene-1,2-diol], in assay [1], it took 0.01 µM to reach a half-maximal effect (EC50) and the “Relative Efficacy” value was −0.25.
